# Experimental data taken from patent EP2520297A1, “Rubreserine and its derivates with antiparasitic activity” (Commissariat à l'Énergie Atomique et aux Énergies …, priority 2011, dated 2012).
# Read-outs that look alike come from different tables or passages of the source.
# Experiments:
# [1] = target: T1, recombinant Arabidopsis thaliana GAT-ADCS (Arabidopsis thaliana, UniProt Q8LPN3); test: Determination of GAT-ADCS activities (glutamate or pABA production, fluorescence); type: biochemical
# T1 construct: made in house
# T1 sequence (Q8LPN3 46-919): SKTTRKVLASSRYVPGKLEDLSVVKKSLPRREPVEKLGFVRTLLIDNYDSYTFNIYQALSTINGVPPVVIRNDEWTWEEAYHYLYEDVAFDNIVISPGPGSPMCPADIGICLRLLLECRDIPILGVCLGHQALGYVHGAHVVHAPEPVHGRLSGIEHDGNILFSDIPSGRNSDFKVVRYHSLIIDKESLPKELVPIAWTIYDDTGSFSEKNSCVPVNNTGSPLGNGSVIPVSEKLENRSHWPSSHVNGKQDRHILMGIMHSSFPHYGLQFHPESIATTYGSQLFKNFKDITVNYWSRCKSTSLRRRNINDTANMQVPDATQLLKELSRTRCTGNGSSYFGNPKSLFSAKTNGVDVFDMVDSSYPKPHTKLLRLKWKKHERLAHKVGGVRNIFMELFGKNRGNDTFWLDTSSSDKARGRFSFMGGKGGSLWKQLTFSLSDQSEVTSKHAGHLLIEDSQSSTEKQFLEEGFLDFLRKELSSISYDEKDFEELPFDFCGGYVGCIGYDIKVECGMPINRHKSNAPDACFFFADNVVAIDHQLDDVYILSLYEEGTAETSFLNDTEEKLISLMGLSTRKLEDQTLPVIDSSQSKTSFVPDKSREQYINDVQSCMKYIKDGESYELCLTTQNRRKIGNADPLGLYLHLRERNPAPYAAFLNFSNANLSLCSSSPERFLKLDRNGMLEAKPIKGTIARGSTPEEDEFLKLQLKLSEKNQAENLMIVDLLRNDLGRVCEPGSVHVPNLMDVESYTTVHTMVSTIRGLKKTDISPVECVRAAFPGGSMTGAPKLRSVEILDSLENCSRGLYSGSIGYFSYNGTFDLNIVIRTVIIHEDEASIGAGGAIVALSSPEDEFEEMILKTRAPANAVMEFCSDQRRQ
# Experimental: Both proteins were expressed and purified as described in the publication of D. Camara et al., Archives of Biochemistry and Biophysics 505 (2011) 83-90.
# GAT-ADCS activity can be determined by measuring the production of either glutamate or pABA. Standard assays contained 100 mM Tris/HCl (pH 8.0), 5 mM MgCl2, 5% V/V glycerol, 0 to 0.5 mM L-glutamine, 0.1 mM chorismate, 9 yg ml^-1 (90 nM) of the recombinant Arabidopsis thaliana GAT-ADCS and either 1 mM NAD and an excess of glutamate deshydrogenase (GDH) for glutamate determination, or an excess of Escherichia coli ADCL (20 µg ml^-1, 600 nM) for pABA determination. Reactions (final volume 80 µl) were run in the wells of a 96 well microplate (Greiner) and changes in fluorescence were continuously monitored with a microplate scanning spectrophotometer Safir 2 (Tecan). The glutamate production was followed by the fluorescence emission of NADH at 450 nm (excitation 340 nm). The pABA production was directly followed by the increase of the fluorescence emission at 340 nm (excitation 290 nm).
# The equipment involved an automated screening station (Tecan Genesis 2000, Lyon, France), including a microplate reader. The platform is controlled by software for driving of serial devices and assays scheduling (Tecan Gemini 4.2 and FACTS 4.82 software). The library of compounds was purchased from The Prestwick Chemical Library®. This library contains 1200 molecules, 100% being marketed drugs, supplied at a 5 mM concentration in DMSO. The final concentration used in the enzymatic assay was 100 µM, and it was verified in separate control experiments that 2% DMSO had no effect on the activity. The enzymatic test used to determine GAT-ADCS activity in primary and secondary screenings was based on glutamate determination, as described above. After optimization of the assay, the Z' factor was comprised between 0.68 and 0.84.
# ADCS = ADCS (Escherichia coli, UniProt P05041); settings: purified enzyme; M. C. Kozlowski et al., J. Am. Chem. Soc. 117 (1995); cited from earlier work
# ADCS, sequence (P05041 whole entry): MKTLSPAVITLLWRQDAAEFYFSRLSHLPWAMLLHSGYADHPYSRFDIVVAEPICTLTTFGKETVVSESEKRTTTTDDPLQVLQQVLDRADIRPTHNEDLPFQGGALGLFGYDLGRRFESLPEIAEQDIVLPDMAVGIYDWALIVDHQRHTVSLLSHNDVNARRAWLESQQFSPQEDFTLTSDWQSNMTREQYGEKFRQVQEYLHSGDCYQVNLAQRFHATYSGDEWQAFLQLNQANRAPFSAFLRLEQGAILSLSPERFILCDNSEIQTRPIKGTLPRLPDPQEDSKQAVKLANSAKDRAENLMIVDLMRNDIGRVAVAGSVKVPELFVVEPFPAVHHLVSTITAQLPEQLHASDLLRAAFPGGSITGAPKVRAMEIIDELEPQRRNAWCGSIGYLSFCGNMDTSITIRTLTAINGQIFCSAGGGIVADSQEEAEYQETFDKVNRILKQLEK
# ADCL = target: T2, ADCL (Escherichia coli, UniProt P28305); test: Control experiment on ADCL; type: biochemical; settings: control experiments
# T2 construct: made in house
# T2 sequence (P28305 whole entry): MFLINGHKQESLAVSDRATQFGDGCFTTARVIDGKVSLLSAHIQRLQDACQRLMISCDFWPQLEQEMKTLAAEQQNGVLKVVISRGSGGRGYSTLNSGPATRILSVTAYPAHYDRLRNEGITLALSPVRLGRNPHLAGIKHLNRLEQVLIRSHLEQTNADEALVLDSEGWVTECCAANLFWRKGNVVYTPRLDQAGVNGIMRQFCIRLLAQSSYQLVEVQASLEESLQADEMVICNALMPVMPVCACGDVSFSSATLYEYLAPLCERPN
# [2] = tested on: Arabidopsis thaliana (ecotype Columbia) seedlings; test: Arabidopsis thaliana seedling growth on agar plates; type: in vivo
# Experimental: Arabidopsis thaliana (ecotype Columbia) seedlings were grown on plates containing Murashige and Skoog medium, […], plus the various molecules to be tested. Seeds were first sterilized by soaking for 15 minutes in a solution containing 0,095% Tween® 20 and 0,57% sodium hypochlorite before to be laid on the agar medium. The plates were conserved in the dark at 4°C for 48 hours, and then transferred in a green house (20°C, 80% humidity, 150 µE.m^-2.s^-1, 12 hours light period). The number of seedlings at the two leaf stage (rosette stage) was counted after 2 weeks.
# [3] = tested on: Toxoplasma gondii tachyzoites (RH-YFP2 strain); test: Toxoplasma gondii invasion assay in human fibroblasts; type: cell-based; settings: for IC50: Toxoplasma gondii, Fibroblast, calculated from the curves of Figures 3A and 3B (invasion and intracellular replication)
# Experimental: (§1) Toxoplasma gondii tachyzoites (RH-YFP2 strain) were propagated in human foreskin fibroblasts (HFFs). Human cells were grown in DMEM supplemented with 100 U/mL penicillin, […] streptomycin, 2 mM glutamine, and 10% FBS (Gibco). To obtain extracellular parasites, host cells were forced through a 26.5 gauge needle, and then the released parasites were purified by filtration through a 3 µm polycarbonate membrane before use.
# For the invasion assay, RH-YFP2 parasites were incubated for 5 hours with the different drugs. Then 10^6 parasites/well were centrifuged for 30 seconds at 1300 rpm on HFF monolayers to synchronize invasion and wells were incubated for 15 minutes in a water bath at 37°C. Wells were washed three times with cold PBS to eliminate extracellular parasites and cells were fixed in 2.5% formaldehyde/PBS for 30 minutes and stored in PBS at 4°C until staining. To distinguish intracellular from extracellular parasites, cells were incubated with the primary antibody mAb Tg05-54 to detect the major Toxoplasma surface protein SAG1 (TgSAG1), then with Texas Red-conjugated goat anti-mouse secondary antibody (Molecular Probes). […] Nuclei were stained with Hoechst 33258 (Molecular Probes). To determine the number of intracellular parasites, 12 randomly selected fields were counted per well and per experiment with a Zeiss Axioplan 2 microscope equipped for epifluorescence and phase-contrast. Invasion was expressed as % of the number of intracellular parasites recorded in non-treated cells.
# [4] = tested on: Toxoplasma gondii tachyzoites (RH-YFP2 strain); test: Toxoplasma gondii intracellular proliferation assay; type: cell-based
# Experimental: as §1
# For the proliferation assay, 10^5 parasites/well were centrifuged on HFF monolayers for 30 seconds at 1300 rpm and incubated for 15 minutes in a water bath at 37°C for invasion. Wells were then washed three times with PBS to eliminate extracellular parasites and drugs were added. After 24 hours at 37°C in a humidified atmosphere containing 5% CO2, cells were fixed as described above. The number of parasites from up to 200 individual vacuoles was counted for each drug concentration.
# [5] = tested on: 3D7 strain of Plasmodium falciparum; test: Plasmodium falciparum SYBR Green 1-based fluorescence growth assay; type: cell-based; settings: 3D7, 96 h
# Experimental: The 3D7 strain of Plasmodium falciparum was maintained in O+ blood. A rubreserine 10 mM stock concentration was made up in 1 × PBS pH = 7.5. This stock solution was then diluted serially to obtain the growth curve. Growth inhibition was measured after 96 hours by using an in vitro SYBR Green 1-based fluorescence growth assay, as previously described (T. N. Bennett et al., Antimicrob. Agents Chemoter. (2004) 48 1807-1810; M. Smilkstein et al., Antimicrob. Agents Chemoter. (2004) […] 1803-1806).
# [6] = tested on: confluent human fibroblast cells; test: Effect on confluent human fibroblast cells; type: cell-based; settings: concentrations up to 50 µM
# Experimental: Firstly, it was verified that rubreserine concentrations up to 50 µM had no effect on confluent human fibroblast cells. The effect of rubreserine on Toxoplasma gondii parasites was then studied in two situations: • i) in invasion of human fibroblasts, and • ii) in intracellular development of the parasites.
# Toxoplasma gondii = settings: read-out: IC50 generally reported in the literature; P. Meneceur, Antimicrob. Agents Chemother. 52 (2008); cited from earlier work
smiles,measurement,setting,value
"CN1CCC2(C)c3cc(O)ccc3N(C)C12 (single isomer, unassigned) [eseroline, reference compound]",effect on the enzyme activity,[1],no or little effect
C=C(OC1C(O)=C(C(=O)O)C=CC1N)C(=O)O (stereo not shown) [2-hydroxy-4-amino-4-deoxy chorismate],Ki,ADCS,38 µM
CN1CCC2(C)C3=CC(=O)C(=O)C=C3N(C)C12 (stereo not shown) [rubreserine],period of incubation required to obtain maximal inhibition,"[1]; GAT activity, 10 and 20 µM",20 min
same,Ki,"[1]; bifunctional GAT-ADCS, summary statement, read-out: apparent inhibitory constant (Ki)",< 10 µM
same,type of inhibition,"[1]; decreased Vm for pABA production, increased Km for glutamine",mixed-type inhibition
same,inhibitory effect after incubation with a reducing agent,[1]; incubation with dithiothreitol (DTT),suppressed the inhibitory effect
same,Ki,"[1]; pABA production, varying glutamine, 100 µM chorismate, 20 minutes incubation with rubreserine, estimated from the curves, read-out: Ki",~4 µM
same,Ki,"[1]; pABA production, varying glutamine, 100 µM chorismate, 20 minutes incubation with rubreserine, estimated from the curves, read-out: αKi",~9 µM
same,effect on ADCL,ADCL,no effect
same,growth inhibition with 5-formyl tetrahydrofolate,"[2]; 200 µM 5-FTHF together with rubreserine, lower extent than pABA",able to revert the inhibitory effect
same,growth inhibition with pABA,[2]; agar plates supplemented with 200 µM pABA together with rubreserine,suppressed or largely reduced
same,growth of seedlings,"[2]; agar plates, various concentrations (50 or 100 µM), two weeks",dose-dependent growth inhibition
same,number of intracellular parasites,"[3]; 20 µM, parasites incubated 5 hours with drug, 15 minutes contact with human cells",reduced two times
same,IC50,[3],~20 µM
same,efficiency compared with sulfanilamide and sulfadiazine,[3]; invasion of human fibroblasts or intracellular replication,more efficient
same,inhibition in the presence of pABA or 5-FTHF,[4]; 20 µM rubreserine with 100 µM pABA or 100 µM 5-FTHF,significantly reversed the inhibition
same,number of parasites in the parasitophorous vacuoles,"[4]; 24 hours after invasion, 200 vacuoles counted",decreased
same,inhibition in combination with pyrimethamine,"[4]; rubreserine 20 µM with pyrimethamine 0.4 µM, compared to rubreserine alone",increased
same,IC50,[5],~1.2 µM
same,effect on confluent human fibroblast cells,[6],no effect
"Nc1ccc(S(=O)(=O)Nc2ncccn2)cc1 [sulfadiazine, reference compound]",IC50,[3],> 50 µM
same,IC50,Toxoplasma gondii,> 30 µM
